The values below come from ChEMBL document CHEMBL4052831, “The Discovery of N-(1-Methyl-5-(trifluoromethyl)-1H-pyrazol-3-yl)-5-((6- ((methylamino)methyl)pyrimidin-4-yl)oxy)-1H-indole-1-carboxamide (Acrizanib), a VEGFR-2 Inhibitor Specifically Designed for Topical Ocular Delivery, as a Therapy for Neovascular Age-Related Macular Degeneration” (J Med Chem, 2018).

The structures appear in SMILES notation. Calls of active or inactive are those of the source. The rule behind the calls is not given here.

Data set [1] in a line: Intrinsic clearance in rat liver microsomes at 1 uM after 5 to 30 mins by LC-MS/MS analysis. The format is ADME, microsome. The following applies: read-out: CLH.
For another data set, the system named is Mus musculus. Briefly: Antiangiogenic activity in C57BL/6 mouse laser-induced choroidal neovascularization model assessed as inhibition of neovascularization administered 1% suspension using 3.5 uL topical drop to both eyes every 3 hrs for 9 hrs by microscopic analysis.
Another data set relates to Rattus norvegicus. Briefly: Antiangiogenic activity in Brown Norway rat laser-induced choroidal neovascularization model assessed as inhibition of neovascularization administered 1% suspension using 4 uL topical drop to both eyes every 3 hrs for 9 hrs by microscopic analysis.
Data set [2] deals with Vascular endothelial growth factor receptor 2 (Homo sapiens, UniProt P35968).
Chain of Vascular endothelial growth factor receptor 2 (P35968 whole entry): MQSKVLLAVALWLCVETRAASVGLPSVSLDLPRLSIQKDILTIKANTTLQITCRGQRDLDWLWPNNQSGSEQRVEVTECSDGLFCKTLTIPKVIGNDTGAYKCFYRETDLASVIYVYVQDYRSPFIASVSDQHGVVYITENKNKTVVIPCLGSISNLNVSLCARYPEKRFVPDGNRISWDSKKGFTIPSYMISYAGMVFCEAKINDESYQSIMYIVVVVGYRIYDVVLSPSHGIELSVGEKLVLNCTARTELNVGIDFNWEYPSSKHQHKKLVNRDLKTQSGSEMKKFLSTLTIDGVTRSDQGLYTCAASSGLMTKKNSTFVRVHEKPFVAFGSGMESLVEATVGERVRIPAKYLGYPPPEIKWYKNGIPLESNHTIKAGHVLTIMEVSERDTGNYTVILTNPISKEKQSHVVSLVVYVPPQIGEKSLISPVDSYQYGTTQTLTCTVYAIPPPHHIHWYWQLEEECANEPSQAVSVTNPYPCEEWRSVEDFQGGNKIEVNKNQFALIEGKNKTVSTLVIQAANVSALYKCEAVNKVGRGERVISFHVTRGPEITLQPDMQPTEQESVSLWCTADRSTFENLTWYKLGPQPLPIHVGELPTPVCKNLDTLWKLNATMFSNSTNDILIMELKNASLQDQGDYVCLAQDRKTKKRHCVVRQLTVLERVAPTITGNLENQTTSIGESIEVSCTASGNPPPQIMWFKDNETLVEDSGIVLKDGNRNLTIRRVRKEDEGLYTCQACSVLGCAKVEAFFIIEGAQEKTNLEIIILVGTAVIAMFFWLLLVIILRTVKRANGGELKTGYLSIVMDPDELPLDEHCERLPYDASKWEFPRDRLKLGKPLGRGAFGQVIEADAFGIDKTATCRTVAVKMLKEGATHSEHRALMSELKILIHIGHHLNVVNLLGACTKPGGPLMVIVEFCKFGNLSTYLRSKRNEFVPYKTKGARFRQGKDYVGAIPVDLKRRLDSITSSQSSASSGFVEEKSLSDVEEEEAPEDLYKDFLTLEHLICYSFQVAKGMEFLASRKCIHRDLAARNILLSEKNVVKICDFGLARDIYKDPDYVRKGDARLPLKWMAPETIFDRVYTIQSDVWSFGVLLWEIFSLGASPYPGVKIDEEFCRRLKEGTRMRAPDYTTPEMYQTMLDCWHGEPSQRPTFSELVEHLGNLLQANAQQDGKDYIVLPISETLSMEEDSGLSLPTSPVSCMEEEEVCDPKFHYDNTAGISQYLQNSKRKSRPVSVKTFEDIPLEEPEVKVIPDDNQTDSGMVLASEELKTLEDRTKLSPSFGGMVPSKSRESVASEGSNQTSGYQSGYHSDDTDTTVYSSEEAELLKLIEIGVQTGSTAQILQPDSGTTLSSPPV
Description: Inhibition of KDR (unknown origin) expressed in mouse Ba/F3 cells

As for `CNCc1cc(Oc2ccc3c(ccn3C(=O)Nc3cc(C(C)C)on3)c2)ncn1`, the microsomal CLint at 1 µM in data set [1] worked out at 114 µL/min/mg.

On to `CNCc1cc(Oc2ccc3c(ccn3C(=O)Nc3cc(C4(C)CC4)on3)c2)ncn1`, for which, in data set [1], the microsomal CLint at 1 µM worked out at 91 µL/min/mg.

Turning to `O=C(Nc1cc(C2CC2)on1)n1ccc2cc(Oc3cc(CO)ncn3)ccc21`, the inhibition entry with Mus musculus was “inactive”.

In the case of `O=C(Nc1cc(C2CCOCC2)on1)n1ccc2cc(Oc3ncnc4c3CNC4)ccc21`, the inhibition result with Mus musculus was “inactive”.

In the case of `CC(=O)N1Cc2ncnc(Oc3ccc4c(ccn4C(=O)Nc4cc(C5CC5)on4)c3)c2C1`, the inhibition result with Rattus norvegicus is “inactive”.

Usually IC50 stands for the concentration that inhibits the measured activity by half. Low readings indicate inhibition by little substance, high ones a need for much substance. On to `Nc1nccc(Oc2ccc3c(C(=O)Nc4cccc(C(F)(F)F)c4)cccc3c2)n1`, for which the inhibition entry with Rattus norvegicus was “inactive”. Besides, the half-maximal inhibitory concentration (IC50) in data set [2] was 1.7 nM.

Consider `CNCc1cc(Oc2ccc3c(ccn3C(=O)Nc3cc(C(F)(F)F)[nH]n3)c2)ncn1`, for which the microsomal CLint at 1 µM in data set [1] is 131 µL/min/mg.

In turn, `O=C(Nc1cccc(C(F)(F)F)c1)c1cccc2cc(Oc3cc(CO)ncn3)ccc12` [BFH-772] registered an IC50 in data set [2] of 1.3 nM.
